Measured values as given in patent publication US10189809B2, “SGC stimulators” (Ironwood Pharmaceuticals, Inc., priority 2010, dated 2019).
Where two headings read alike, the source gives them in different places.

Tests used:
[1] = target: T1, soluble guanylate cyclase (sGC) (Homo sapiens (Human), UniProt Q02108+Q02153); experiment: sGC-HEK-cGMP assay run in the absence of SNP (HEK WC assay); format: cell-based; conditions: compound at 30 μM, absence of SNP
Summary of the method: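 HEK293 cells with endogenous sGC, preincubated 15 min at 37° C with 0.5 mM IBMX, then exposed to test compound 10 min at 37° C without SNP. Cells lysed in 0.1 M HCl; cGMP quantified by LC/MS against a standard curve. EC50 from concentration-response curves.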

[2] = target: T1, soluble guanylate cyclase (sGC); experiment: sGC-HEK-cGMP assay run with SNP incubation (HEK WC assay); format: cell-based; conditions: for HEK WC Assay (fold increase at 30 μM in the presence of 10 μM SNP): compound at 30 μM; for EC50: in the presence of 10 uM SNP
Summary of the method: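 HEK293 cells with endogenous sGC were pretreated with 0.5 mM IBMX for 15 min at 37 °C, then exposed to test compound plus sodium nitroprusside for 10 min at 37 °C.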

[3] = read-out: HEK WC Assay (% Emax at 1 μM with 10 uM SNP)
[4] = read-out: HEK WC Assay (% Emax at 10 μM with 10 uM SNP)
[5] = read-out: HEK WC Assay (% Emax at 30 μM with 10 uM SNP)

T1 sequence (Q02153 whole entry): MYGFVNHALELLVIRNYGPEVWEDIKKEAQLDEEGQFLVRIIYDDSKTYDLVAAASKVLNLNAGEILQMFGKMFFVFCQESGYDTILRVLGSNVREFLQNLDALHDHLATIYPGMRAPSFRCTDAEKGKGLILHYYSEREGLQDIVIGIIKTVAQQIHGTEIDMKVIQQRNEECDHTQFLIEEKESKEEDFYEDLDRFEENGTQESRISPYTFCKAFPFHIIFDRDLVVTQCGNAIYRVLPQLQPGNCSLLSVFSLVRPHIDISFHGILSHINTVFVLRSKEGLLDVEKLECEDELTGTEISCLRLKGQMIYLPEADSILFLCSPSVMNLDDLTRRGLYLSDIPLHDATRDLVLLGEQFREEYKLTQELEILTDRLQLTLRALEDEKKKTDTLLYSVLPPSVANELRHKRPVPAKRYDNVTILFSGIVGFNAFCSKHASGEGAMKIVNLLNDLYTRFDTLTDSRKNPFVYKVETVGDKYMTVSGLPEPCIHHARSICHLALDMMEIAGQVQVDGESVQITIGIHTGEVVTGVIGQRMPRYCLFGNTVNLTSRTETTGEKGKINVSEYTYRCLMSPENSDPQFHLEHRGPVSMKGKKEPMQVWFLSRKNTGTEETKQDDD
T1 sequence (Q02108 whole entry): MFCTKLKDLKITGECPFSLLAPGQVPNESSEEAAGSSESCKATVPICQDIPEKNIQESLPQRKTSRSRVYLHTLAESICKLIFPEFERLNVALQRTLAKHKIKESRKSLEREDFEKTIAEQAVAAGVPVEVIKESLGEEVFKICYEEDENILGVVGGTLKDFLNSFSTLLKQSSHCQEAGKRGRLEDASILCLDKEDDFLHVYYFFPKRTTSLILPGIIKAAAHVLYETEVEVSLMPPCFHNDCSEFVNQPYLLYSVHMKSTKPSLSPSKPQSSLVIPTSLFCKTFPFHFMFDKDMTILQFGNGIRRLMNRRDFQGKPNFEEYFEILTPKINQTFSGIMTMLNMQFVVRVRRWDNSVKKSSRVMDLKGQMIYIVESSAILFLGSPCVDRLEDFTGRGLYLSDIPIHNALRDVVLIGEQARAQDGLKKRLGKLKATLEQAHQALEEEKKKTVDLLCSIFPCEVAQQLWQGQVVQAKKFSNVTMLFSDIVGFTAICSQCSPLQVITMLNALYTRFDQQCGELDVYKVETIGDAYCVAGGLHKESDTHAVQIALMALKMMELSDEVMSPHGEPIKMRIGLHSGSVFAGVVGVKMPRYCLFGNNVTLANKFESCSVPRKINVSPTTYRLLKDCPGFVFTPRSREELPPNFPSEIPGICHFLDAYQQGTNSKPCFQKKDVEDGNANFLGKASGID

Structure (SMILES) | HEK WC Assay (fold increase at 30 μM in the absence of SNP) [1] | HEK WC Assay (fold increase at 30 μM in the presence of 10 μM SNP) [2] | EC50 [2] | Emax [2, 3] | Emax [2, 4] | Emax [2, 5]
Nc1nc(-c2cc(-c3ccon3)n(Cc3ccccc3F)n2)ncc1NC(=O)c1cccc(C(F)(F)F)c1 [Compound I-215] | E (E = 10 to <20 fold increase) | F (F = 20 to <30 fold increase) | < 20 µM | 80 to 100% | 80 to 100% | 80 to 100%
Nc1nc(-c2cc(-c3ccon3)n(Cc3ccccc3F)n2)ncc1NC(=O)C1(c2ccccc2)CCC1 [Compound I-218] | D (D = 5 to <10 fold increase) | E (E = 10 to <20 fold increase) | 20 to 40 µM | 40 to 60% | 40 to 60% | 20 to 40%
Nc1nc(-c2cc(-c3ccon3)n(Cc3ccccc3F)n2)ncc1NC(=O)[C@@H]1CCCN1C(=O)C(F)(F)F [Compound I-219] | D (D = 5 to <10 fold increase) | E (E = 10 to <20 fold increase) | < 20 µM | 20 to 40% | 60 to 80% | 60 to 80%
c1cnc(-c2cc(-c3ccon3)n(Cc3cnccn3)n2)nc1 [Compound I-221] | B (B = 1 to <2 fold increase) | C (C = 2 to <5 fold increase) | – | 0 to 10% | 0 to 10% | 10 to 20%
Nc1nc(-c2cc(-c3ccon3)n(Cc3ccccc3F)n2)ncc1NCc1ccccc1 [Compound I-223] | C (C = 2 to <5 fold increase) | E (E = 10 to <20 fold increase) | 100 to 300 µM | 0 to 10% | 10 to 20% | 10 to 20%
O=S(=O)(c1cnc(-c2cc(-c3ccon3)n(Cc3ccccc3F)n2)nc1O)N1CCOCC1 [Compound I-224] | C (C = 2 to <5 fold increase) | E (E = 10 to <20 fold increase) | < 20 µM | 20 to 40% | 40 to 60% | 40 to 60%
Nc1nc(-c2cc(-c3ccon3)n(Cc3ccccc3F)n2)ncc1NC(=O)[C@@H]1CCCN1 [Compound I-225] | C (C = 2 to <5 fold increase) | E (E = 10 to <20 fold increase) | 60 to 100 µM | 0 to 10% | 20 to 40% | 20 to 40%
CC(F)(F)C(=O)Nc1cnc(-c2cc(-c3ccon3)n(Cc3ccccc3F)n2)nc1N [Compound I-226] | E (E = 10 to <20 fold increase) | F (F = 20 to <30 fold increase) | < 20 µM | 40 to 60% | 80 to 100% | 60 to 80%
C/C=C(\C)C(=O)Nc1cnc(-c2cc(-c3ccon3)n(Cc3ccccc3F)n2)nc1N [Compound I-227] | F (F = 20 to <30 fold increase) | F (F = 20 to <30 fold increase) | < 20 µM | 40 to 60% | 60 to 80% | 60 to 80%
CN(C(=O)c1ccccc1)c1cnc(-c2cc(-c3ccon3)n(Cc3ccccc3F)n2)nc1N [Compound I-228] | C (C = 2 to <5 fold increase) | E (E = 10 to <20 fold increase) | 20 to 40 µM | 10 to 20% | 40 to 60% | 40 to 60%
CO[C@@](C(=O)Nc1cnc(-c2cc(-c3ccon3)n(Cc3ccccc3F)n2)nc1N)(c1ccccc1)C(F)(F)F [Compound I-229] | C (C = 2 to <5 fold increase) | E (E = 10 to <20 fold increase) | 20 to 40 µM | 20 to 40% | 40 to 60% | 20 to 40%
CC1(C(=O)Nc2cnc(-c3cc(-c4ccon4)n(Cc4ccccc4F)n3)nc2N)CCCCC1 [Compound I-231] | E (E = 10 to <20 fold increase) | E (E = 10 to <20 fold increase) | < 20 µM | 60 to 80% | 80 to 100% | 80 to 100%
CC1(C(=O)Nc2cnc(-c3cc(-c4ccon4)n(Cc4ccccc4F)n3)nc2N)CCCO1 (centres unmarked) [Compound I-232] | C (C = 2 to <5 fold increase) | E (E = 10 to <20 fold increase) | < 20 µM | 20 to 40% | 60 to 80% | 60 to 80%
Nc1nc(-c2cc(-c3ccon3)n(Cc3ccccc3F)n2)ncc1NC(=O)C12CC3CC(CC(C3)C1)C2 [Compound I-233] | E (E = 10 to <20 fold increase) | F (F = 20 to <30 fold increase) | < 20 µM | 80 to 100% | 80 to 100% | 80 to 100%
CN(C(=O)C(C)(C)C)c1cnc(-c2cc(-c3ccon3)n(Cc3ccccc3F)n2)nc1N [Compound I-234] | C (C = 2 to <5 fold increase) | E (E = 10 to <20 fold increase) | < 20 µM | 20 to 40% | 40 to 60% | 40 to 60%
CC(C)(C(=O)Nc1cnc(-c2cc(-c3ccon3)n(Cc3ccccc3F)n2)nc1N)c1ccccc1 [Compound I-236] | C (C = 2 to <5 fold increase) | E (E = 10 to <20 fold increase) | < 20 µM | 20 to 40% | 60 to 80% | 60 to 80%
Nc1nc(-c2cc(-c3ccon3)n(Cc3ccccc3F)n2)ncc1NC(=O)/C=C/c1ccccc1 [Compound I-239] | D (D = 5 to <10 fold increase) | E (E = 10 to <20 fold increase) | < 20 µM | 40 to 60% | 60 to 80% | 60 to 80%
CC(C)=CC(=O)Nc1cnc(-c2cc(-c3ccon3)n(Cc3ccccc3F)n2)nc1N [Compound I-240] | E (E = 10 to <20 fold increase) | E (E = 10 to <20 fold increase) | < 20 µM | 60 to 80% | 60 to 80% | 60 to 80%
O=S(=O)(c1ccc(F)cc1)c1cnc(-c2cc(-c3ccon3)n(Cc3ccccc3F)n2)nc1O [Compound I-241] | D (D = 5 to <10 fold increase) | E (E = 10 to <20 fold increase) | < 20 µM | 20 to 40% | 60 to 80% | 40 to 60%
Nc1nc(-c2cc(-c3ccon3)n(Cc3ccccc3F)n2)ncc1NC(=O)C1(C(F)(F)F)CCC1 [Compound I-243] | D (D = 5 to <10 fold increase) | E (E = 10 to <20 fold increase) | < 20 µM | 40 to 60% | 40 to 60% | 60 to 80%
Nc1nc(-c2cc(-c3ccon3)n(Cc3ccccc3F)n2)ncc1NC(=O)C(F)(F)c1ccccc1 [Compound I-244] | D (D = 5 to <10 fold increase) | E (E = 10 to <20 fold increase) | 20 to 40 µM | 20 to 40% | 40 to 60% | 40 to 60%
